Patent publication US20240277713A1 (Kadmon Corporation, LLC, priority 2022, published 2024)
Marks after values point to notes of the source that are not given here.

System: New Zealand White rabbits
Experiment: Embryo-fetal developmental toxicity study in New Zealand White rabbits (Example 4);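 note: dams given a detailed clinical exam daily GD 6 to 29, about 4 h after dosing, then laparohysterectomy on GD 29 with external, visceral and skeletal fetal examination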

CC(C)NC(=O)COc1cccc(-c2nc(Nc3ccc4[nH]ncc4c3)c3ccccc3n2)c1 [belumosudil, 2-{3-[4-(1H-indazol-5-ylamino)-2-quinazolinyl]phenoxy}-N-(propan-2-yl) acetamide]
Hair sparse, Forefoot/right, times observed/animals affected (125 mg base/kg/day, GD 0-29): 0/0 | Hair sparse, Forelimb/left, times observed/animals affected (125 mg base/kg/day, GD 0-29): 4/1 | Hair sparse, Hind limb/left, times observed/animals affected (125 mg base/kg/day, GD 0-29): 0/0 | Hair sparse, Inguinal region/right, times observed/animals affected (125 mg base/kg/day, GD 0-29): 4/1 | Hair sparse, Shoulder/left, times observed/animals affected (125 mg base/kg/day, GD 0-29): 2/1 | Hair sparse, Thoracic region, times observed/animals affected (125 mg base/kg/day, GD 0-29): 2/1 | Hair sparse, Ventral surface, times observed/animals affected (125 mg base/kg/day, GD 0-29): 19/1 | Material in pan/bedding, Red, times observed/animals affected (125 mg base/kg/day, GD 0-29): 2/1 | Nail missing, Forefoot/left, times observed/animals affected (125 mg base/kg/day, GD 0-29): 0/0 | Scabbed area, Ear/left, times observed/animals affected (125 mg base/kg/day, GD 0-29): 0/0 | Scabbed area, Nose/muzzle, times observed/animals affected (125 mg base/kg/day, GD 0-29): 0/0 | Skin discolored, Pale, Entire body, times observed/animals affected (125 mg base/kg/day, GD 0-29): 0/0 | Swelling, Nose/muzzle, times observed/animals affected (125 mg base/kg/day, GD 0-29): 0/0 | Swelling, Vulva, times observed/animals affected (125 mg base/kg/day, GD 0-29): 0/0 | Thin, times observed/animals affected (125 mg base/kg/day, GD 0-29): 0/0 | Fetal Body Weight Genders Combined, % Difference From Control (225 mg base/kg/day): −5.76% | Fetal External Malformation: Short Tail, No. Fetuses (incidence) (225 mg base/kg/day): 5 (3.2) | Fetal External Malformation: Short Tail, No. Litters (incidence) (225 mg base/kg/day): 2 (10.5) | Fetal External Malformations, No. Fetuses (incidence) (225 mg base/kg/day): 5 (3.2) | Fetal External Malformations, No. Litters (incidence) (225 mg base/kg/day): 2 (10.5) | Fetal Skeletal Malformations, No. Fetuses (incidence) (225 mg base/kg/day): 19 (12.2) | Fetal Skeletal Malformations, No. Litters (incidence) (225 mg base/kg/day): 10 (52.6) | Fetal Visceral Variations, No. Fetuses (incidence) (225 mg base/kg/day): 12 (7.7) | Fetal Visceral Variations, No. Litters (incidence) (225 mg base/kg/day): 8 (42.1) | Maternal Body Weight Change GD 0-29, % Difference From Control (225 mg base/kg/day): −24.2% | Maternal Body Weight GD 10, % Difference From Control (225 mg base/kg/day): −6.3% | Maternal Body Weight GD 13, % Difference From Control (225 mg base/kg/day): −8.0% | Maternal Body Weight GD 16, % Difference From Control (225 mg base/kg/day): −9.2% | Maternal Body Weight GD 19, % Difference From Control (225 mg base/kg/day): −8.4% | Maternal Body Weight GD 21, % Difference From Control (225 mg base/kg/day): −6.7% | Maternal Food Consumption GD 0-29 (225 mg base/kg/day): 119.80 | Maternal Food Consumption GD 0-29, % Difference From Control (225 mg base/kg/day): −17.8% | Maternal Food Consumption GD 6-10 (225 mg base/kg/day): 61.2^b | Maternal Food Consumption GD 6-19 (225 mg base/kg/day): 78.70 | Maternal Food Consumption GD 6-19, % Difference From Control (225 mg base/kg/day): −49.7% | Maternal Food Consumption GD 19-29 (225 mg base/kg/day): 155.3^b | Mean Fetal Body Weight Females (225 mg base/kg/day): 38.94 g | Mean Fetal Body Weight Genders Combined (225 mg base/kg/day): 38.60 g | Mean Fetal Body Weight Males (225 mg base/kg/day): 38.92 g | Mean Live Litter Size (225 mg base/kg/day): 7.4 | Mean Number of Early Resorptions (225 mg base/kg/day): 1.4^a | Mean Number of Resorptions (Combined) (225 mg base/kg/day): 1.5^a | Mean Postimplantation Loss (225 mg base/kg/day): 17.72 %/Litter | Number Litters with Viable Fetuses GD29 (225 mg base/kg/day): 19 | Number with All Resorptions GD29 (225 mg base/kg/day): 2 | cervical vertebra(e) centra, hemicentra, fetal incidence (225 mg base/kg/day): 2.6% | cervical vertebra(e) centra, hemicentra, litter incidence (225 mg base/kg/day): 21.1% | neural arches (thoracic) fused, fetal incidence (225 mg base/kg/day): 1.9% | neural arches (thoracic) fused, litter incidence (225 mg base/kg/day): 10.5% | neural arches (thoracic) misaligned, fetal incidence (225 mg base/kg/day): 1.3% | neural arches (thoracic) misaligned, litter incidence (225 mg base/kg/day): 10.5% | neural arches (thoracic) misshapen, fetal incidence (225 mg base/kg/day): 2.6% | neural arches (thoracic) misshapen, litter incidence (225 mg base/kg/day): 21.1% | rib(s) branched, fetal incidence (225 mg base/kg/day): 2.6% | rib(s) branched, litter incidence (225 mg base/kg/day): 21.2% | rib(s) fused, fetal incidence (225 mg base/kg/day): 2.6% | rib(s) fused, litter incidence (225 mg base/kg/day): 15.8% | rib(s) misshapen, fetal incidence (225 mg base/kg/day): 1.9% | rib(s) misshapen, litter incidence (225 mg base/kg/day): 15.8% | short tail (entire), fetal incidence (225 mg base/kg/day): 3.2% | short tail (entire), litter incidence (225 mg base/kg/day): 10.5% | sternebra(e) extra, fetal incidence (225 mg base/kg/day): 4.5% | sternebra(e) extra, litter incidence (225 mg base/kg/day): 21.1% | sternebra(e) fused, fetal incidence (225 mg base/kg/day): 4.5% | sternebra(e) fused, litter incidence (225 mg base/kg/day): 31.6% | tail bent (entire), fetal incidence (225 mg base/kg/day): 1.3% | tail bent (entire), litter incidence (225 mg base/kg/day): 5.3% | ureter malpositioned, litter incidence (225 mg base/kg/day): 26.3% | Number Aborted (225 mg base/kg/day, 23 females): 1 | Number Died (225 mg base/kg/day, 23 females): 1 | Number Litters with Viable Fetuses GD29 (225 mg base/kg/day, 23 females): 19 | Number Not Pregnant (225 mg base/kg/day, 23 females): 0 | Number with All Resorptions GD29 (225 mg base/kg/day, 23 females): 2 | Activity decreased, times observed/animals affected (225 mg base/kg/day, GD 0-29): 4/1 | Feces few/absent, times observed/animals affected (225 mg base/kg/day, GD 0-29): 0/0 | Hair discolored, Brown, Anogenital region, times observed/animals affected (225 mg base/kg/day, GD 0-29): 0/0 | Hair discolored, Brown, Ear/left, times observed/animals affected (225 mg base/kg/day, GD 0-29): 0/0 | Hair discolored, Brown, Ear/right, times observed/animals affected (225 mg base/kg/day, GD 0-29): 0/0 | Hair discolored, Brown, Face, times observed/animals affected (225 mg base/kg/day, GD 0-29): 12/2 | Hair discolored, Brown, Hind limb/left, times observed/animals affected (225 mg base/kg/day, GD 0-29): 1/1 | Hair discolored, Red, Anogenital region, times observed/animals affected (225 mg base/kg/day, GD 0-29): 0/0 | Hair discolored, Red, Face, times observed/animals affected (225 mg base/kg/day, GD 0-29): 0/0 | Hair discolored, Red, Forelimb/left, times observed/animals affected (225 mg base/kg/day, GD 0-29): 0/0 | Hair discolored, Red, Thoracic region, times observed/animals affected (225 mg base/kg/day, GD 0-29): 0/0 | Hair discolored, Yellow, Ear/right, times observed/animals affected (225 mg base/kg/day, GD 0-29): 0/0 | Hair discolored, Yellow, Face, times observed/animals affected (225 mg base/kg/day, GD 0-29): 14/2 | Hair sparse, Anogenital region, times observed/animals affected (225 mg base/kg/day, GD 0-29): 0/0 | Hair sparse, Axillary region/left, times observed/animals affected (225 mg base/kg/day, GD 0-29): 3/1 | Hair sparse, Axillary region/right, times observed/animals affected (225 mg base/kg/day, GD 0-29): 2/1 | Hair sparse, Cervical region, times observed/animals affected (225 mg base/kg/day, GD 0-29): 0/0 | Hair sparse, Ear/left, times observed/animals affected (225 mg base/kg/day, GD 0-29): 0/0 | Hair sparse, Ear/right, times observed/animals affected (225 mg base/kg/day, GD 0-29): 0/0 | Hair sparse, Forefoot/left, times observed/animals affected (225 mg base/kg/day, GD 0-29): 3/1 | Hair sparse, Forefoot/right, times observed/animals affected (225 mg base/kg/day, GD 0-29): 5/2 | Hair sparse, Forelimb/left, times observed/animals affected (225 mg base/kg/day, GD 0-29): 0/0 | Hair sparse, Hind limb/left, times observed/animals affected (225 mg base/kg/day, GD 0-29): 8/1 | Hair sparse, Inguinal region/right, times observed/animals affected (225 mg base/kg/day, GD 0-29): 0/0 | Hair sparse, Shoulder/left, times observed/animals affected (225 mg base/kg/day, GD 0-29): 0/0 | Hair sparse, Thoracic region, times observed/animals affected (225 mg base/kg/day, GD 0-29): 1/1 | Hair sparse, Ventral surface, times observed/animals affected (225 mg base/kg/day, GD 0-29): 0/0 | Material in pan/bedding, Red, times observed/animals affected (225 mg base/kg/day, GD 0-29): 2/2 | Nail missing, Forefoot/left, times observed/animals affected (225 mg base/kg/day, GD 0-29): 0/0 | Scabbed area, Ear/left, times observed/animals affected (225 mg base/kg/day, GD 0-29): 0/0 | Scabbed area, Nose/muzzle, times observed/animals affected (225 mg base/kg/day, GD 0-29): 0/0 | Skin discolored, Pale, Entire body, times observed/animals affected (225 mg base/kg/day, GD 0-29): 11/1 | Swelling, Nose/muzzle, times observed/animals affected (225 mg base/kg/day, GD 0-29): 0/0 | Swelling, Vulva, times observed/animals affected (225 mg base/kg/day, GD 0-29): 2/1 | Thin, times observed/animals affected (225 mg base/kg/day, GD 0-29): 38/5 | NOAEL for maternal and developmental toxicity (pregnant rabbits): 50 mg base/kg/day | doses at which embryo-fetal effects were observed (abortion, post-implantation loss, malformations, decreased fetal body weight) (pregnant rabbits, oral): ≥ 50 mg/kg/day | doses at which maternal toxicity (body weight loss and mortality) was observed (pregnant rabbits, oral, organogenesis): ≥ 125 mg/kg/day
